# Measured values from ChEMBL document CHEMBL3112424, “Discovery and optimization of pyrimidone indoline amide PI3Kβ inhibitors for the treatment of phosphatase and tensin homologue (PTEN)-deficient cancers” (J Med Chem, 2014).
# Assays:
# [1] = target: T1, Phosphatidylinositol 4,5-bisphosphate 3-kinase catalytic subunit beta isoform (Homo sapiens, UniProt P42338); settings: UACC-62
# Target sequence in this assay (P42338 whole entry, looked up, canonical isoform): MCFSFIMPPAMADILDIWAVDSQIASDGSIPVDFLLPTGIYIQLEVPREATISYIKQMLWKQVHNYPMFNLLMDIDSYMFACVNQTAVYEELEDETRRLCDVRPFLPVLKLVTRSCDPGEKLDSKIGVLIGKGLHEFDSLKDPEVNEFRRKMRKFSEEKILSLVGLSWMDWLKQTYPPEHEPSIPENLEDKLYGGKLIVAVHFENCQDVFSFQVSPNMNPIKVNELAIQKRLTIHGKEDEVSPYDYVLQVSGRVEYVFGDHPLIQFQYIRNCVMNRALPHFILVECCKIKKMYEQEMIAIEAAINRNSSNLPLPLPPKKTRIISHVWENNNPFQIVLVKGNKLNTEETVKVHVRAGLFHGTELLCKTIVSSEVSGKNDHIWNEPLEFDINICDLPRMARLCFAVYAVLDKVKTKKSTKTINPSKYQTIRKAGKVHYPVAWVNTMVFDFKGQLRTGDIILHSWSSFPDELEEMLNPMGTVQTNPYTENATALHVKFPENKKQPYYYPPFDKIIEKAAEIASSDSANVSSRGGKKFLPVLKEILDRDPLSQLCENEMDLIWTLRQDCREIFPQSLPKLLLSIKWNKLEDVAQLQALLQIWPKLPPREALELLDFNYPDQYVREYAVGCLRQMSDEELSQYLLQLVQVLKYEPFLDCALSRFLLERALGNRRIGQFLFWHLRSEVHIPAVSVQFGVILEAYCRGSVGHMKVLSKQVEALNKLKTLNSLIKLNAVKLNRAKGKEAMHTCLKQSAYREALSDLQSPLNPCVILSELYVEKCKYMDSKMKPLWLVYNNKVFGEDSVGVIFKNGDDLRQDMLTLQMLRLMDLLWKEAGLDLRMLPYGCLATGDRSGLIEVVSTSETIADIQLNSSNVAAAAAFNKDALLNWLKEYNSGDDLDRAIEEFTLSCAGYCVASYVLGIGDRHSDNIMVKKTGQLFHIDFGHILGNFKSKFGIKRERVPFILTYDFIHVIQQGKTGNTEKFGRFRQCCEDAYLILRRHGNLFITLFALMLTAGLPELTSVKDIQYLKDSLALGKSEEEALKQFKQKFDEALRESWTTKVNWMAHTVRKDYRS
# [2] = Tmax in Balb/c mouse plasma at 100 mg/kg, po by LC-MS/MS analysis; type: ADME, organism-based; design: dose 100 mg/kg, route oral
# [3] = Half life in Beagle dog at 3 mg/kg, iv; type: ADME, organism-based, Canis lupus familiaris; design: dose 3 mg/kg, route intravenous; settings: in vivo
# [4] = Oral bioavailability in Beagle dog at 10 mg/kg; type: ADME, organism-based, Canis lupus familiaris; settings: in vivo
# [5] = Tmax in Beagle dog at 10 mg/kg, po; type: ADME, organism-based, Canis lupus familiaris; design: dose 10 mg/kg, route oral; settings: in vivo
# [6] = target: Phosphatidylinositol 3-kinase catalytic subunit type 3 (Homo sapiens, UniProt Q8NEB9); assay: Inhibition of VPS34 (unknown origin)
# Sequence of Phosphatidylinositol 3-kinase catalytic subunit type 3 (Q8NEB9 whole entry): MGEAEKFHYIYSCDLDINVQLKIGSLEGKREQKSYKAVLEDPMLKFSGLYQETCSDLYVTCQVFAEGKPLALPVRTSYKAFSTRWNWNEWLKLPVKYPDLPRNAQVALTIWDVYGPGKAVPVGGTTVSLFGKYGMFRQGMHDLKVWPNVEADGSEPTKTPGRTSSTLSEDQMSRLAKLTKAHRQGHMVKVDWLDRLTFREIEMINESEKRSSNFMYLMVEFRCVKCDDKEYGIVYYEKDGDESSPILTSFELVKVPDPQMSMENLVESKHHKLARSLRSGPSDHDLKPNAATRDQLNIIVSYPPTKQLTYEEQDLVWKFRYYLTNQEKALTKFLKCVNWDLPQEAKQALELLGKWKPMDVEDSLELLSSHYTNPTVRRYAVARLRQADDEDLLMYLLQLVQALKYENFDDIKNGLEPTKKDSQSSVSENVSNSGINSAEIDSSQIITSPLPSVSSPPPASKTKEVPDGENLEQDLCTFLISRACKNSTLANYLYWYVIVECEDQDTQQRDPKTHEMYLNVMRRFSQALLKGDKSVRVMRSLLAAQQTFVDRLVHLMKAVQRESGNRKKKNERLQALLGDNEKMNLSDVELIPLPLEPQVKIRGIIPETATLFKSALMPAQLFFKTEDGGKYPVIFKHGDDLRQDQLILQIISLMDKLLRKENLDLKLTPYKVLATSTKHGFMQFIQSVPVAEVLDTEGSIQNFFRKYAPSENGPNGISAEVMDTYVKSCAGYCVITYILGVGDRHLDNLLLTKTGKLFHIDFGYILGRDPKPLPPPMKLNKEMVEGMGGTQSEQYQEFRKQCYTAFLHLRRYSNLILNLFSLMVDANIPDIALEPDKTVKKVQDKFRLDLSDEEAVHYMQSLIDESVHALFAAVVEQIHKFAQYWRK
# [7] = Cmax in Balb/c mouse plasma at 10 mg/kg, po after 15 to 30 mins by LC-MS/MS analysis; type: ADME, organism-based; design: dose 10 mg/kg, route oral
# Plasma = assay: Fraction unbound in SCID mouse plasma xenografted with BRAF-V600E/PTEN-deficient human UACC62 cells at 100 mg/kg, po; type: ADME, organism-based, UACC-62; design: dose 100 mg/kg, route oral; settings: in vivo
# Mus musculus [8] = assay: Toxicity in SCID mouse xenografted with BRAF-V600E/PTEN-deficient human UACC62 cells at 150 mg/kg, po bid; type: organism-based, UACC-62; design: dose 150 mg/kg, route oral; settings: in vivo
# [9] = Plasma concentration in Balb/c mouse at 100 mg/kg, po measured for 5 hrs; type: ADME, organism-based; design: dose 100 mg/kg, route oral
# [10] = Plasma concentration in SCID mouse xenografted with PTEN-deficient human PC3 cells at 100 mg/kg, po after 24 hrs; type: ADME, organism-based, PC-3; design: dose 100 mg/kg, route oral
# [11] = AUC (infinity) in Balb/c mouse plasma at 3 mg/kg, iv by LC-MS/MS analysis; type: ADME, organism-based; design: time infinity, dose 3 mg/kg, route intravenous
# Mus musculus [12] = assay: In vivo inhibition of PI3Kbeta in tumor of SCID mouse xenografted with BRAF-V600E/PTEN-deficient human UACC62 cells assessed as inhibition of Akt phosphorylation at S473 at 200 mg/kg, po up to 6 hrs; type: functional; settings: UACC-62, 6 h
# [13] = target: DNA-dependent protein kinase catalytic subunit (Homo sapiens, UniProt P78527); assay: Inhibition of DNA-PK (unknown origin)
# [14] = Volume of distribution at steady state in Beagle dog at 3 mg/kg, iv; type: ADME, organism-based, Canis lupus familiaris; design: dose 3 mg/kg, route intravenous; settings: in vivo, read-out: Vdss
# [15] = target: T1, Phosphatidylinositol 4,5-bisphosphate 3-kinase catalytic subunit beta isoform; settings: PC-3
# Target sequence in this assay (P42338 whole entry, looked up, canonical isoform): as the sequence (P42338 whole entry, looked up, canonical isoform) above
# Description: Inhibition of PI3Kbeta-mediated Akt phosphorylation at S473 in PTEN-deficient human PC3 cells after 0.5 to 2 hrs by Immunoblotting assay
# [16] = Apparent permeability in human Caco2 cells at 5 uM after 20 mins; settings: Caco-2
# [17] = Plasma concentration in SCID mouse xenografted with PTEN-deficient human PC3 cells at 100 mg/kg, po after 1 hr; type: ADME, organism-based, PC-3; design: dose 100 mg/kg, route oral
# [18] = target: Serine/threonine-protein kinase mTOR (Homo sapiens, UniProt P42345); assay: Inhibition of mTOR (unknown origin)
# [19] = Apparent terminal half life in Balb/c mouse plasma at 3 mg/kg, iv by LC-MS/MS analysis; type: ADME, organism-based; design: dose 3 mg/kg, route intravenous; settings: read-out: betat1/2(app) (converted)
# [20] = Clearance in Balb/c mouse plasma at 3 mg/kg, iv by LC-MS/MS analysis; type: ADME, organism-based; design: dose 3 mg/kg, route intravenous
# [21] = Oral bioavailability in nude rat at 10 mg/kg; type: ADME, organism-based; settings: in vivo
# [22] = Solubility of the compound in phosphate buffer at pH 7.4 by HPLC analysis; settings: buffer
# [23] = Volume of distribution at steady state in nude rat at 3 mg/kg, iv; type: ADME, organism-based; design: dose 3 mg/kg, route intravenous; settings: in vivo, read-out: Vdss
# [24] = Half life in nude rat at 3 mg/kg, iv; type: ADME, organism-based; design: dose 3 mg/kg, route intravenous; settings: in vivo
# [25] = Metabolic stability in human liver microsomes at 5 uM after 20 mins; settings: liver microsomes
# [26] = Clearance in Beagle dog at 3 mg/kg, iv; type: ADME, organism-based, Canis lupus familiaris; design: dose 3 mg/kg, route intravenous; settings: in vivo
# [27] = target: T1, Phosphatidylinositol 4,5-bisphosphate 3-kinase catalytic subunit beta isoform; assay: Inhibition of PI3Kbeta-mediated Akt phosphorylation at S473 in BRAF-V600E/PTEN-deficient human UACC62 cells; type: cell-based, UACC-62
# Target sequence in this assay (P42338 whole entry, canonical isoform): as the sequence (P42338 whole entry, looked up, canonical isoform) above
# [28] = Cmax in Beagle dog at 10 mg/kg, po; type: ADME, organism-based, Canis lupus familiaris; design: dose 10 mg/kg, route oral; settings: in vivo
# [29] = AUC (infinity) in Balb/c mouse plasma at 100 mg/kg, po by LC-MS/MS analysis; type: ADME, organism-based; design: time infinity, dose 100 mg/kg, route oral
# [30] = target: T1, Phosphatidylinositol 4,5-bisphosphate 3-kinase catalytic subunit beta isoform; assay: Inhibition of N-terminal ploy-His-tagged human PI3Kbeta expressed in baculovirus-infected sf21 cells using PI(4,5)P2 as substrate after 15 mins by HTRF assay
# Target sequence in this assay (P42338 whole entry, canonical isoform): as the sequence (P42338 whole entry, looked up, canonical isoform) above
# [31] = Cmax in nude rat at 10 mg/kg, po; type: ADME, organism-based; design: dose 10 mg/kg, route oral; settings: in vivo
# [32] = target: Phosphatidylinositol 4-phosphate 3-kinase C2 domain-containing subunit beta (Homo sapiens, UniProt O00750); assay: Inhibition of PI3KC2beta (unknown origin)
# Sequence of Phosphatidylinositol 4-phosphate 3-kinase C2 domain-containing subunit beta (O00750 whole entry, the tested form may be a part): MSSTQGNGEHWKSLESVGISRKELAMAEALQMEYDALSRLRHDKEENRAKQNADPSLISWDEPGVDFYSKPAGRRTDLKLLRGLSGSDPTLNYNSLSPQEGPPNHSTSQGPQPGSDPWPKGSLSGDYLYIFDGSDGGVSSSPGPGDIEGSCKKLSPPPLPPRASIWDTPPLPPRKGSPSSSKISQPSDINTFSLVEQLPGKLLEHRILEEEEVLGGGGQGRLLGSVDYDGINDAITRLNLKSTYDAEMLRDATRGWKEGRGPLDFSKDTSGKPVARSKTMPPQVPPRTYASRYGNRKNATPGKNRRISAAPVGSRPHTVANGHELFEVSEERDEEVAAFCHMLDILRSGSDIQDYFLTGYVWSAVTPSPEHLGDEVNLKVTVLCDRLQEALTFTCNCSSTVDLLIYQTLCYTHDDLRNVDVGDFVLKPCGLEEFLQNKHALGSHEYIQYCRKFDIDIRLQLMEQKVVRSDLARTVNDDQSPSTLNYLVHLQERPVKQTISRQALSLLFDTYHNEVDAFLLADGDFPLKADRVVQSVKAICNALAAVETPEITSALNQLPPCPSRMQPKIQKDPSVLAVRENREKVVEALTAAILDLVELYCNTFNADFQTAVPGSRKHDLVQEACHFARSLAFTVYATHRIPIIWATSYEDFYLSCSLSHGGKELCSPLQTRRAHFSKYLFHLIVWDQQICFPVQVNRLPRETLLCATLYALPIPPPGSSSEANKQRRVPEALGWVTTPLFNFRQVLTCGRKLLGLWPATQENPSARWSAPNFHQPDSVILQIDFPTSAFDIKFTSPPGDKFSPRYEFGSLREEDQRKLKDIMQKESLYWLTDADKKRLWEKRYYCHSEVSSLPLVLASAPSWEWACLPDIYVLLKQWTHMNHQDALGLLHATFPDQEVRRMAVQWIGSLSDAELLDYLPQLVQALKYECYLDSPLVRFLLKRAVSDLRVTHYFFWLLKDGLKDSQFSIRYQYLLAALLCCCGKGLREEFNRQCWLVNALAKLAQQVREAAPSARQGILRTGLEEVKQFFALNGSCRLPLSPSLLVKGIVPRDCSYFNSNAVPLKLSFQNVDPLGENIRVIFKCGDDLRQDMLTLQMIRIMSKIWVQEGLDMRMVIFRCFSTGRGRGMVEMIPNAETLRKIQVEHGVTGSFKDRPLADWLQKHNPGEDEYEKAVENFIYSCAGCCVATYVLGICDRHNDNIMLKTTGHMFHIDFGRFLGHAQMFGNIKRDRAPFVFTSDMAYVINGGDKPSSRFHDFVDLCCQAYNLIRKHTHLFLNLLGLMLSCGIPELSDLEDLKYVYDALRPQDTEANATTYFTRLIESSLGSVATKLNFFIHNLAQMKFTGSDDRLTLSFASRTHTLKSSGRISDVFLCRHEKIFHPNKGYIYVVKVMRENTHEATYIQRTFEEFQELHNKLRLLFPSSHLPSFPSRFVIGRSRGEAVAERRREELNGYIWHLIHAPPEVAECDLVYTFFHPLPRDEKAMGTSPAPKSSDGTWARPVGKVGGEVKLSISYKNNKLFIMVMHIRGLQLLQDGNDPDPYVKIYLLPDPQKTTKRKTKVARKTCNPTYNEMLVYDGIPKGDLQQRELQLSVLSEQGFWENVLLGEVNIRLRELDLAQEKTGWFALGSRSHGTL
# [33] = AUC (infinity) in Balb/c mouse plasma at 10 mg/kg, po by LC-MS/MS analysis; type: ADME, organism-based; design: time infinity, dose 10 mg/kg, route oral
# Mus musculus [34] = assay: In vivo inhibition of PI3Kbeta in tumor of SCID mouse xenografted with PTEN-deficient human PC3 cells assessed as inhibition of Akt phosphorylation at S473 at 100 mg/kg, po up to 7 hrs; type: functional; settings: PC-3, 7 h
# Liver microsome = assay: Metabolic stability in dog liver microsomes; type: ADME, Canis lupus familiaris
# [35] = Plasma concentration in Balb/c mouse at 100 mg/kg, po measured for 12 hrs; type: ADME, organism-based; design: dose 100 mg/kg, route oral
# [36] = AUC (infinity) in Beagle dog at 3 mg/kg, iv; type: ADME, organism-based, Canis lupus familiaris; design: time infinity, dose 3 mg/kg, route intravenous; settings: plasma
# [37] = AUC (infinity) in nude rat at 10 mg/kg, po; type: ADME, organism-based; design: time infinity, dose 10 mg/kg, route oral; settings: plasma
# [38] = Cmax in Balb/c mouse plasma at 100 mg/kg, po by LC-MS/MS analysis; type: ADME, organism-based; design: dose 100 mg/kg, route oral
# [39] = Fraction unbound in SCID mouse plasma xenografted with PTEN-deficient human PC3 cells at 100 mg/kg, po; type: ADME, organism-based, PC-3; design: dose 100 mg/kg, route oral
compound,measurement,setting,value
C[C@H]1Cc2ccccc2N1C(=O)Cc1nc(N2CCOCC2)cc(=O)[nH]1 [SAR-260301],IC90,[1],2000 nM
same,Tmax,[2],15 min
same,half-life,[3],> 300 min
same,bioavailability,[4],67%
same,Tmax,[5],30 min
same,IC50,[6],183 nM
same,Cmax,[7],848 ng/mL
same,Cp(f),Plasma,1820 nM
same,Activity,Mus musculus [8],Non-toxic
same,concentration at 5 h,[9],> 1000 nM
same,concentration at 24 h,[10],76 nM
same,AUC(0-inf),[11],600 ng·h/mL
same,inhibition in vivo at 200 mg/kg,Mus musculus [12],> 50%
same,IC50,[13],2000 nM
same,Vd,[14],> 3 L/kg
same,IC90,[15],2 nM
same,"Papp at 20 min, 5 µM",[16],4.8 ×10⁻⁶ cm/s
same,concentration at 1 h,[17],24900 nM
same,IC50,[18],> 10000 nM
same,half-life,[19],52.2 min
same,clearance,[20],83.3 mL/min/kg
same,bioavailability,[21],70%
same,solubility,[22],928 µM
same,Vd,[23],8.1 L/kg
same,half-life,[24],52.2 min
same,"remaining at 20 min, 5 µM",[25],12%
same,clearance,[26],6.67 mL/min/kg
same,IC50,[27],60 nM
same,Cmax,[28],4770 ng/mL
same,AUC(0-inf),[29],11000 ng·h/mL
same,IC50,[30],23 nM
same,Cmax,[31],1460 ng/mL
same,IC50,[32],> 1000 nM
same,AUC(0-inf),[33],610 ng·h/mL
same,inhibition in vivo at 100 mg/kg,Mus musculus [34],≥ 50%
same,Stability,Liver microsome,5%
same,concentration at 12 h,[35],> 100 nM
same,AUC(0-inf),[36],6580 ng·h/mL
same,AUC(0-inf),[37],2410 ng·h/mL
same,Cmax,[38],8960 ng/mL
same,fraction unbound,[39],0.4
